Legend:
VDR-ap = molecular target: T1, VDR-ap (Homo sapiens, UniProt P11473); details: cited from earlier work
T1 sequence (P11473 1-427): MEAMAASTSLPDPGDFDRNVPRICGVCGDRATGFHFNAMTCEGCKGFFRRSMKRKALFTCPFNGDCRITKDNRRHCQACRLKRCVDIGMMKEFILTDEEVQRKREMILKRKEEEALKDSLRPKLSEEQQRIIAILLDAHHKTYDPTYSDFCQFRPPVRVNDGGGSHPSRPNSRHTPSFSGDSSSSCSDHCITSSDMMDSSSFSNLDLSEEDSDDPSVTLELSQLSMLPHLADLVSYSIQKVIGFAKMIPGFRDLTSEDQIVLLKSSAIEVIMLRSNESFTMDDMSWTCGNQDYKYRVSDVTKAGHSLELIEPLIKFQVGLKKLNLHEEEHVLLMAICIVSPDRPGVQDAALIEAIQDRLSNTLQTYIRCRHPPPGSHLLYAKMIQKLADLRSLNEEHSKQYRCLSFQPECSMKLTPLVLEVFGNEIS

human spermatozoa = test: Sperm motility of washed spermatozoa with or without percoll gradient centrifugation; assay type: cell-based; details: 10 nM JN
[1] = system: zona pellucida (ZP) of human oocytes; test: Human sperm-zona pellucida interaction (sperm-egg binding) test; assay type: cell-based; details: 10 nM JN
Excerpt: We used the Human sperm-zona pellucida interaction test that is designed to determine the capacity of sperm to interact with the zona pellucida (ZP) of human oocytes and serves thus as a test for evaluating fertility potential of human spermatozoa. The tests provide important diagnostic information about sperm fertilising ability and we used a modified version of the test developed by Liu and Baker (Liu and Baker hum reprod 1999 Defective sperm-zona pellucida interaction: a major cause of failure of fertilization in clinical in-vitro fertilization).
If the oocyte had sperm bound to the ZP from the IVF insemination, these were removed by aspiration using a fine glass pipette with an inner diameter (120 μm) slightly smaller than the oocyte diameter. […] Oocytes with >10 sperm penetrating the ZP were not used. Also degenerate, activated or morphologically abnormal oocytes were not used for the sperm-ZP interaction test. Oocytes were pooled from several patients and used for the test on the same day or kept in the incubator and used within the next 20 days. Between 15-30 oocytes was placed in 1 ml salt solution (storage 2-4 weeks). Salt-stored human oocytes were washed with gamete buffer (COOK) with four changes in 3 hours before they were used for the sperm-egg binding test.
Semen samples from five donors were used. […] The washed sperm pellet was resuspended with sEBSS to a sperm concentration of 2×10^6/ml for the ZP-interaction test. For the assessment of the sperm concentration the samples were diluted following the manufactures instruction and subsequently determined using SP-100 (Chemometec).
For the sperm-ZP interaction tests, either high quality sperm or total sperm sample (2×10^6) in 0.5 ml of medium (+/−1 nM Calcitriol) were incubated with three oocytes for 2 h at 37° C. in 5% CO2 in air. After incubation, the oocytes were transferred to sEBSS and washed by repeated aspiration with a glass pipette (inside diameter approximately 250 μm) to dislodge sperm loosely adhering to the surface of the ZP. Sperm binding to all oocytes was assessed.

- mean number of spermatozoa bound to each oocyte ([1]; 1 donor (vehicle mean 37)): 65
- difference in sperm-egg binding versus vehicle ([1]; separated by percoll gradient centrifugation): 300%
- average improvement of sperm-egg binding versus vehicle ([1]; without percoll gradient centrifugation): 11%
SMILES: C[C@H](CCCC(C)(C)O)[C@H]1CC[C@H]2C3=CC=C4C[C@@H](O)C[C@H](O)[C@@]4(C)[C@@H]3CC[C@]12C [JN, 1α,25(OH)2-lumisterol]
- affinity for VDR-ap (VDR-ap): same affinity as 1,25(OH)2D3
- motile sperm (human spermatozoa; 60 minutes, isolated by percoll gradient centrifugation (from 69%)): 72%
- sperm motility (mean) (human spermatozoa; 60 minutes, no percoll centrifugation (vehicle mean 34)): 46
- change in proportion of motile sperm (human spermatozoa; 24 hours at room temperature, with and without percoll, not substantially different from vehicle): modest decrease

From patent US20140100419A1, “ACTIVE VITAMIN D OR ANALOGS THEREOF FOR USE IN IN VIVO OR IN VITRO FERTILIZATION” (priority 2011, published 2014)
